From US9127016B2, “Small molecule inhibitors of Dusp6 and uses therefor” (University of Pittsburgh—Of the Commonwealth System of …, priority 2009, dated 2015)

Assays:
[1] = test system: FGF signaling (Tg(Dusp6:dsEGFP) reporter); assay: Dose response of GFP expression in Tg(Dusp6:dsEGFP) embryos, automated imaging; assay type: in vivo, zebrafish; conditions: Danio rerio; treated at 24 hpf, 6 hours; read-out: EC50, GFP expression in transgenic embryos
Method: We tested a series of structurally related analogs of BCI in an in vivo assay. As described in Molina et al. (Nature Chemical Biology, 2009), Tg(Dusp6:dsEGFP) embryos were treated at 24 hours post fertilization with increasing doses of compounds. After 6 hours treatment, embryos were imaged by the IXU ImageXpress (Molecular Devices), and images were processed by Definiens Software. The software identified bright head structures and measured fluorescence.
Under similar conditions, BCI-related analogs were tested and EC50 values measured.

ERK2-stimulated Dusp6 = biological target: T1, ERK2-stimulated Dusp6 (Homo sapiens, UniProt Q16828); assay: ERK2-induced activation of Dusp6, OMFP dephosphorylation; assay type: biochemical; conditions: BCI 100 μM
T1 construct: His; made in house
T1 sequence (Q16828 whole entry): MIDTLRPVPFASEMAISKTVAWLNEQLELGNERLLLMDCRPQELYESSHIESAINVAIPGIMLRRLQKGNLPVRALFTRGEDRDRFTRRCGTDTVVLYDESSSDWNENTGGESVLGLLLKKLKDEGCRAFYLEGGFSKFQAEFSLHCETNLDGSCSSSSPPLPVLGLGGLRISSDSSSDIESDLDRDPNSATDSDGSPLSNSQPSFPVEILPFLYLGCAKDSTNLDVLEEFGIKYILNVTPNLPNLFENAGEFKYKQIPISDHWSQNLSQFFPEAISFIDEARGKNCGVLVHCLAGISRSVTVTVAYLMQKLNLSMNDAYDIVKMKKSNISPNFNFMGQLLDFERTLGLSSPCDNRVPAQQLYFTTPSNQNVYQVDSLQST
T1 sequence (P28482 whole entry partner): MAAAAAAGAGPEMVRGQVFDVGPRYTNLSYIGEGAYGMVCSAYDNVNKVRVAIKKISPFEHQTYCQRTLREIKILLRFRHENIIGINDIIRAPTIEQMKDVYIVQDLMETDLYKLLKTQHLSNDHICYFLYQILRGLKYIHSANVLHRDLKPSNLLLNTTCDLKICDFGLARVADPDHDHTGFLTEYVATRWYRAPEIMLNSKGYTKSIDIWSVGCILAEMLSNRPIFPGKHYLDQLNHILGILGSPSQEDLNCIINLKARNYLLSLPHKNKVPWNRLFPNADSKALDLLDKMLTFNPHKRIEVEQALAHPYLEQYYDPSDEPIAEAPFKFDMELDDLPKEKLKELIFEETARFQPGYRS
Method: For OMFP based ERK2 induced activation of Dusp6, recombinant His-tagged Dusp6 was expressed from a bacterial expression vector and 250 ng were incubated with the indicated concentrations of NSC95397 or BCI. OMFP was added at its apparent Km (100 μM) (Vogt, A. et al. J Biol Chem 280, 19078-86 (2005)). The final reaction volume was 15 μl. After 1 h at RT, OMF fluorescence was measured on an M5 multimode reader (Molecular Devices) at excitation/emission wavelengths of 485/525 nm. To assay activated Dusp6, 210 ng or 2.1 μg of recombinant ERK2 (Cell signaling) were added to Dusp6(210 ng)/BCI(100 μM) mixtures to measure activation at 1:1 and 1:10 ratio of substrate to enzyme. OMFP was immediately added and fluorescence (ex485/em525 nm) was read every 10 min for 130 min. Fold activation was calculated at 60 mins in each experiment.

Cdc25B = biological target: T2, Cdc25B (Homo sapiens, UniProt P30305); assay: OMFP phosphatase assay, Cdc25B; assay type: biochemical; conditions: n=3, OMFP substrate, 15.2 nM-300 μM; read-out: mean in vitro values, Cdc25B
T2 sequence (P30305 1-580): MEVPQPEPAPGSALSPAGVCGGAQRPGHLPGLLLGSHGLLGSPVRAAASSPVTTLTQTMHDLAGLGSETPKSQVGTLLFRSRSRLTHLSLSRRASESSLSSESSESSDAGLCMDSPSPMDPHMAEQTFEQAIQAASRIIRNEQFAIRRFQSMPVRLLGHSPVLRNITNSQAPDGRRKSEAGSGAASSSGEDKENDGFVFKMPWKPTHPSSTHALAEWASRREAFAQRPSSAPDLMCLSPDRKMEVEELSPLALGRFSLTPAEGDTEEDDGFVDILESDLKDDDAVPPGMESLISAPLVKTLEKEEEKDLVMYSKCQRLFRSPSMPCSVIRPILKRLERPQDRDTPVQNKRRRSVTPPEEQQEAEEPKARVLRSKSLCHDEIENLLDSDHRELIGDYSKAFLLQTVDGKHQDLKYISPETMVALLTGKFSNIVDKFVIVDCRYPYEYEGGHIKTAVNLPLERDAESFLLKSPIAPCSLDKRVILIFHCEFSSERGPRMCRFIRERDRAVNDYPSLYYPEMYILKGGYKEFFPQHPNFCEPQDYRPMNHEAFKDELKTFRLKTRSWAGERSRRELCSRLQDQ
Method: Enzyme activities in the presence or absence of BCI were measured using the artificial substrate […] at concentrations equal to the Km of each enzyme (Cdc25B, PTP1B & Dusp3/VHR) and at optimal pH for individual enzyme activity in a 96-well microtiter plate assay based on previously described methods by Lazo et al. (J Med Chem 44, 4042-9 (2001) and Lazo, J. S. et al. Bioorg Med Chem 14, 5643-50 (2006)). Briefly, the standard assay conditions contained 0.02 mg/ml OMFP in assay buffer (30 mM Tris-HCl (pH8.0), 75 mM NaCl, 1 mM EDTA, 0.33% BSA and 1 mM DTT). Fluorescence emission was measured after a sixty-minute incubation period at ambient temperature using a multiwell plate reader (SpectraMax m5, […]; excitation 485 nm, emission 525 nm). Sodium orthovanadate (100 μM) was used as a positive control for full phosphatase inhibition. IC50 concentrations were determined from three experiments using 10 concentrations of BCI ranging from 300 μM to 15.2 nM and GraphPad Prism 5.0 software.

In the case of `O=C1/C(=C/c2ccccc2)C(NC2CCCCC2)c2ccccc21` (stereo not shown) [Compound 3, (E)-2-benzylidene-3-(cyclohexylamino)-2,3-dihydro-1H-inden-1-one], the EC50 [1] is reported as 11.4 µM, the “inhibition of ERK2-stimulated Dusp6 dephosphorylation of OMFP” value (ERK2-stimulated Dusp6; ERK2 three-fold stimulation (1:1)) is reported as 57% and the “inhibition of ERK2-stimulated Dusp6 dephosphorylation of OMFP” value (ERK2-stimulated Dusp6; ratio of ERK2 to Dusp6 10:1, 7-fold enhancement) is reported as 30%. For the same compound, the IC50 (Cdc25B) was greater than 300 µM.
